Measurements: PMC10042540, “Targeting oncogenic KRasG13C with nucleotide-based covalent inhibitors” (eLife, 2023)

Assays:
SOS = experiment: Guanine nucleotide-exchange factor assay (mantdGDP fluorescence); assay type: biochemical
Description: SOS-catalysed nucleotide exchange was monitored at 25 °C in a FluoroMax-3 spectrofluorometer (excitation at 360 nm, emission at 440 nm) in 20 mM HEPES (pH 7.5), 100 mM NaCl, 2 mM MgCl2, and 1 mM TCEP. 5 µM KRas1-169 was mixed with 10 µM mantdGDP and subsequently with different concentrations of SOS (0.25 µM and 0.5 µM) (Figure 3A; Figure 3—figure supplement 1).

[1] = tested on: Ras pathway (pcRaf, pAkt, pErk, pS6); experiment: Electroporation into HeLa cells, western blot of downstream signalling; assay type: cell-based, human; settings: electroporation of 50-300 µg protein
Description: (§1) HeLa cells were obtained from the American Type Culture Collection (ATCC) and were cultured in DMEM medium (Gibco) supplemented with 10% fetal bovine serum (FBS) (PAN-Biotech) and 1% penicillin/streptomycin (Gibco). Cells were cultured in a humidified incubator at 37 °C in the presence of 5% CO2. The identity of the cells was validated by STR profiling and the cells were tested negative for mycoplasma contamination.
(§2) Electroporation of full-length KRas constructs (KRasWT, KRasG13C, KRasG13C-edaGDP, KRasG13C:acetyledaGDP and KRasG13C-edaGppCp) was performed based on the protocol described by [Alex et al., 2019] using the Neon Transfection System Kit (Thermo Fisher). For electroporation, 3 million cells per experiment were harvested by trypsinization, washed with PBS, and resuspended in 85 µL of the electroporation buffer R (Thermo Fisher). Increasing amounts of recombinant protein samples for each construct (0, 50, 100, 200 and 300 µg) were diluted 1:1 in buffer R followed by the addition of 30 µL of this protein master mix to the cell suspension. This cellular slurry was loaded into a […] Neon Pipette Tip (Thermo Fisher) and electroporated with 2x35 ms pulses at 1000 V. After electroporation, the cells were washed twice with PBS (15 mL) to remove non-internalized extracellular protein and the cell pellet was resuspended in 2 mL complete growth media. Cells were transferred into six-well tissue culture plates (Sarstedt) and incubated for 24 hr at 37 °C and 5% CO2 in a humidified incubator for recovery before being processed for western blotting analysis.
After recovery of the electroporation, cells were washed twice with ice-cold PBS and lysed in 100 µL of phosphatase and protease inhibitor containing RIPA buffer (Cell Signaling Technology). Cells were incubated on ice for 30 min and then harvested by scraping followed by centrifugation at 14,000 rpm for 10 min at 4 °C. Protein concentrations were determined using the Pierce BCA protein assay (Thermo) following the manufacturer’s recommended procedure. Equal amounts of protein (10 µg) were analyzed by SDS-PAGE and transferred to Immobilon-FL PVDF membranes (Merck Millipore) using Pierce 1-step transfer buffer (Thermo) and the Pierce Power Blotter (Thermo). Membranes were washed with ddH2O for 5 min, blocked with OdysseyBlocking Buffer TBS (Li-Cor) for 1 hr at room temperature and then incubated with primary antibodies diluted in OdysseyBlocking Buffer TBS overnight at 4 °C with gentle agitation. […] Quantification of protein levels from western blots was performed using Empiria Studio (Li-Cor) (Figure 3B, C, Figure 3—figure supplements 6–9).

pAktS473 = experiment: Electroporation into HeLa cells, western blot quantification; assay type: cell-based, human; settings: for pAkt mean fold change: mean of cell lysates
Description: as §1, §2
(§3) After recovery of the electroporation, cells were washed twice with ice-cold PBS and lysed in 100 µL of phosphatase and protease inhibitor containing RIPA buffer (Cell Signaling Technology). Cells were incubated on ice for 30 min and then harvested by scraping followed by centrifugation at 14,000 rpm for 10 min at 4 °C. Protein concentrations were determined using the Pierce BCA protein assay (Thermo) following the manufacturer’s recommended procedure. Equal amounts of protein (10 µg) were analyzed by SDS-PAGE and transferred to Immobilon-FL PVDF membranes (Merck Millipore) using Pierce 1-step transfer buffer (Thermo) and the Pierce Power Blotter (Thermo). Membranes were washed with ddH2O for 5 min, blocked with OdysseyBlocking Buffer TBS (Li-Cor) for 1 hr at room temperature and then incubated with primary antibodies diluted in OdysseyBlocking Buffer TBS overnight at 4 °C with gentle agitation. KRas (Sigma Aldrich, SAB1404011-100UG), pcRafS338 (CST, 9427), tAkt1 (CST, 2938), pAktS473 (CST, 4060), tErk (CST, 4696), pErkT202/Y204 (CST, 4370), pS6S235/236 (CST, 4858), and β-actin (CST, 4970/Sigma-Aldrich, A5441) antibodies were used to detect the individual proteins. After primary antibody incubation, membranes were washed three times with TBS-T (50 mM Tris, 150 mM NaCl, 0.05% Tween 20, pH 7.4) for 5 min before being incubated with secondary antibodies (anti-mouse IgG (H+L) (DyLight 680 Conjugate) (CST, 5470) / anti-rabbit IgG (H+L) (DyLight 800 4 X PEG Conjugate) (CST, 5151)) diluted in OdysseyBlocking Buffer TBS for 1 hr at room temperature with gentle agitation. After secondary antibody incubation, the membranes were washed three times for 5 min with TBS-T and then scanned using an OdysseyCLx imaging system (Li-Cor). Quantification of protein levels from western blots was performed using Empiria Studio (Li-Cor) (Figure 3B, C, Figure 3—figure supplements 6–9).

pErkT202/Y204 = experiment: as above; assay type: cell-based, human; settings: for pErk mean fold change: mean of cell lysates
Description: as §1, §2, §3

pS6S235/236 = experiment: as above; assay type: cell-based, human; settings: for pS6 mean fold change: mean of cell lysates
Description: as §1, §2, §3

pcRafS338 = experiment: as above; assay type: cell-based, human; settings: for pcRaf mean fold change: mean of cell lysates
Description: as §1, §2, §3

tAkt1 = experiment: as above; assay type: cell-based, human; settings: for tAkt mean fold change: mean of cell lysates
Description: as §1, §2, §3

tErk = experiment: as above; assay type: cell-based, human; settings: for tErk mean fold change: mean of cell lysates
Description: as §1, §2, §3

## KRasG13C: recombinant oncogenic KRasG13C mutant protein, GDP-bound
SOS; 5 µM KRas1-169, 10 µM mantdGDP, 0.25 or 0.5 µM SOS
  SOS-catalysed nucleotide exchange: efficiently catalysed nucleotide exchange
SOS; absence of SOS
  intrinsic nucleotide exchange rate: drastically increased
[1]
  downstream signalling (pcRaf, pAkt, pErk, pS6): concentration-dependent activation of the downstream signalling
pAktS473; 50 µg, Cell lysate 1
  pAkt fold change: 1.68
pAktS473; 50 µg, Cell lysate 2
  pAkt fold change: 1.22
pAktS473; 50 µg, Cell lysate 3
  pAkt fold change: 2.21
pAktS473; 50 µg
  pAkt mean fold change: 1.70
pAktS473; 100 µg, Cell lysate 1
  pAkt fold change: 3.58
pAktS473; 100 µg, Cell lysate 2
  pAkt fold change: 2.56
pAktS473; 100 µg, Cell lysate 3
  pAkt fold change: 1.82
pAktS473; 100 µg
  pAkt mean fold change: 2.65
pAktS473; 200 µg, Cell lysate 1
  pAkt fold change: 4.98
pAktS473; 200 µg, Cell lysate 2
  pAkt fold change: 2.01
pAktS473; 200 µg, Cell lysate 3
  pAkt fold change: 1.89
pAktS473; 200 µg
  pAkt mean fold change: 2.96
pAktS473; 300 µg, Cell lysate 1
  pAkt fold change: 4.64
pAktS473; 300 µg, Cell lysate 2
  pAkt fold change: 3.64
pAktS473; 300 µg, Cell lysate 3
  pAkt fold change: 1.72
pAktS473; 300 µg
  pAkt mean fold change: 3.33
pErkT202/Y204; 50 µg, Cell lysate 1
  pErk fold change: 5.54
pErkT202/Y204; 50 µg, Cell lysate 2
  pErk fold change: 1.80
pErkT202/Y204; 50 µg, Cell lysate 3
  pErk fold change: 3.53
pErkT202/Y204; 50 µg
  pErk mean fold change: 3.62
pErkT202/Y204; 100 µg, Cell lysate 1
  pErk fold change: 6.18
pErkT202/Y204; 100 µg, Cell lysate 2
  pErk fold change: 2.89
pErkT202/Y204; 100 µg, Cell lysate 3
  pErk fold change: 3.58
pErkT202/Y204; 100 µg
  pErk mean fold change: 4.22
pErkT202/Y204; 200 µg, Cell lysate 1
  pErk fold change: 6.87
pErkT202/Y204; 200 µg, Cell lysate 2
  pErk fold change: 3.48
pErkT202/Y204; 200 µg, Cell lysate 3
  pErk fold change: 4.30
pErkT202/Y204; 200 µg
  pErk mean fold change: 4.88
pErkT202/Y204; 300 µg, Cell lysate 1
  pErk fold change: 9.07
pErkT202/Y204; 300 µg, Cell lysate 2
  pErk fold change: 4.08
pErkT202/Y204; 300 µg, Cell lysate 3
  pErk fold change: 5.76
pErkT202/Y204; 300 µg
  pErk mean fold change: 6.30
pS6S235/236; 50 µg, Cell lysate 1
  pS6 fold change: 1.14
pS6S235/236; 50 µg, Cell lysate 2
  pS6 fold change: 1.57
pS6S235/236; 50 µg, Cell lysate 3
  pS6 fold change: 1.40
pS6S235/236; 50 µg
  pS6 mean fold change: 1.37
pS6S235/236; 100 µg, Cell lysate 1
  pS6 fold change: 0.95
pS6S235/236; 100 µg, Cell lysate 2
  pS6 fold change: 1.80
pS6S235/236; 100 µg, Cell lysate 3
  pS6 fold change: 1.21
pS6S235/236; 100 µg
  pS6 mean fold change: 1.32
pS6S235/236; 200 µg, Cell lysate 1
  pS6 fold change: 1.17
pS6S235/236; 200 µg, Cell lysate 2
  pS6 fold change: 2.22
pS6S235/236; 200 µg, Cell lysate 3
  pS6 fold change: 1.06
pS6S235/236; 200 µg
  pS6 mean fold change: 1.48
pS6S235/236; 300 µg, Cell lysate 1
  pS6 fold change: 1.44
pS6S235/236; 300 µg, Cell lysate 2
  pS6 fold change: 2.42
pS6S235/236; 300 µg, Cell lysate 3
  pS6 fold change: 1.24
pS6S235/236; 300 µg
  pS6 mean fold change: 1.70
pcRafS338; 50 µg, Cell lysate 1
  pcRaf fold change: 1.43
pcRafS338; 50 µg, Cell lysate 2
  pcRaf fold change: 2.59
pcRafS338; 50 µg, Cell lysate 3
  pcRaf fold change: 1.91
pcRafS338; 50 µg
  pcRaf mean fold change: 1.98
pcRafS338; 100 µg, Cell lysate 1
  pcRaf fold change: 1.55
pcRafS338; 100 µg, Cell lysate 2
  pcRaf fold change: 4.23
pcRafS338; 100 µg, Cell lysate 3
  pcRaf fold change: 1.55
pcRafS338; 100 µg
  pcRaf mean fold change: 2.44
pcRafS338; 200 µg, Cell lysate 1
  pcRaf fold change: 1.46
pcRafS338; 200 µg, Cell lysate 2
  pcRaf fold change: 6.14
pcRafS338; 200 µg, Cell lysate 3
  pcRaf fold change: 1.74
pcRafS338; 200 µg
  pcRaf mean fold change: 3.11
pcRafS338; 300 µg, Cell lysate 1
  pcRaf fold change: 1.29
pcRafS338; 300 µg, Cell lysate 2
  pcRaf fold change: 6.29
pcRafS338; 300 µg, Cell lysate 3
  pcRaf fold change: 1.50
pcRafS338; 300 µg
  pcRaf mean fold change: 3.03
tAkt1; 50 µg, Cell lysate 1
  tAkt fold change: 1.94
tAkt1; 50 µg, Cell lysate 2
  tAkt fold change: 0.93
tAkt1; 50 µg, Cell lysate 3
  tAkt fold change: 1.69
tAkt1; 50 µg
  tAkt mean fold change: 1.52
tAkt1; 100 µg, Cell lysate 1
  tAkt fold change: 2.66
tAkt1; 100 µg, Cell lysate 2
  tAkt fold change: 0.74
tAkt1; 100 µg, Cell lysate 3
  tAkt fold change: 1.08
tAkt1; 100 µg
  tAkt mean fold change: 1.49
tAkt1; 200 µg, Cell lysate 1
  tAkt fold change: 2.05
tAkt1; 200 µg, Cell lysate 2
  tAkt fold change: 1.29
tAkt1; 200 µg, Cell lysate 3
  tAkt fold change: 1.44
tAkt1; 200 µg
  tAkt mean fold change: 1.59
tAkt1; 300 µg, Cell lysate 1
  tAkt fold change: 1.78
tAkt1; 300 µg, Cell lysate 2
  tAkt fold change: 1.44
tAkt1; 300 µg, Cell lysate 3
  tAkt fold change: 1.65
tAkt1; 300 µg
  tAkt mean fold change: 1.62
tErk; 50 µg, Cell lysate 1
  tErk fold change: 0.88
tErk; 50 µg, Cell lysate 2
  tErk fold change: 1.05
tErk; 50 µg, Cell lysate 3
  tErk fold change: 0.99
tErk; 50 µg
  tErk mean fold change: 0.97
tErk; 100 µg, Cell lysate 1
  tErk fold change: 0.44
tErk; 100 µg, Cell lysate 2
  tErk fold change: 1.04
tErk; 100 µg, Cell lysate 3
  tErk fold change: 1.00
tErk; 100 µg
  tErk mean fold change: 0.83
tErk; 200 µg, Cell lysate 1
  tErk fold change: 0.50
tErk; 200 µg, Cell lysate 2
  tErk fold change: 1.05
tErk; 200 µg, Cell lysate 3
  tErk fold change: 0.89
tErk; 200 µg
  tErk mean fold change: 0.81
tErk; 300 µg, Cell lysate 1
  tErk fold change: 0.97
tErk; 300 µg, Cell lysate 2
  tErk fold change: 1.08
tErk; 300 µg, Cell lysate 3
  tErk fold change: 0.89
tErk; 300 µg
  tErk mean fold change: 0.98
